{
  "source": "paper PMC6070976",
  "about": "“Interaction of Ochratoxin A and Its Thermal Degradation Product 2′R-Ochratoxin A with Human Serum Albumin” (Toxins, 2018)",
  "key": {"[1]": {"target": "T1, human serum albumin (HSA) (Homo sapiens, UniProt P02768)", "T1 construct": "gene ALB", "T1 sequence (P02768 25-609)": "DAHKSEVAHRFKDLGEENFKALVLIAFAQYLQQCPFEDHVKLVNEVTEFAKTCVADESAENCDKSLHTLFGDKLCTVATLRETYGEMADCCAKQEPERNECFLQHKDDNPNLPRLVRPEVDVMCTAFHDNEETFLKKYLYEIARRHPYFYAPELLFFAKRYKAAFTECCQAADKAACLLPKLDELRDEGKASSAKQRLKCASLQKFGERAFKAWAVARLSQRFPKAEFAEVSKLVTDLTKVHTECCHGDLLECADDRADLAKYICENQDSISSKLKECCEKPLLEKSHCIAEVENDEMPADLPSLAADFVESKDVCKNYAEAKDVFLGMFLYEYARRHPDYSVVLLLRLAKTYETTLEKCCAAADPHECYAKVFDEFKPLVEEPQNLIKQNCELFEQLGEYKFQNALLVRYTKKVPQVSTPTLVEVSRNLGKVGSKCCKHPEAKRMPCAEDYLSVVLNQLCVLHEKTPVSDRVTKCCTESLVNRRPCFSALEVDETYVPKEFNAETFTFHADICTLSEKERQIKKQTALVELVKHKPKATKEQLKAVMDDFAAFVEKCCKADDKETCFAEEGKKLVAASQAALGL", "experiment": "fluorescence quenching/enhancement and anisotropy titrations; also equilibrium dialysis, HSA affinity chromatography, CD", "type": "binding", "settings": "read-out: logK (Hyperquad, Figure 3) (converted)"}, "[2]": {"target": "T1, human serum albumin (HSA)", "experiment": "equilibrium dialysis; also fluorescence titrations and anisotropy, HSA affinity chromatography, CD", "type": "binding", "settings": "read-out: % bound"}},
  "data": [
    {"compound": "C[C@@H]1Cc2c(Cl)cc(C(=O)N[C@H](Cc3ccccc3)C(=O)O)c(O)c2C(=O)O1", "note": "[2′R-OTA, 2′R-Ochratoxin A]", "values": [
      {"measurement": "Kd", "setting": "[1]", "value": 589, "unit": "nM"}
    ]},
    {"compound": "C[C@@H]1Cc2c(Cl)cc(C(=O)N[C@@H](Cc3ccccc3)C(=O)O)c(O)c2C(=O)O1", "note": "[OTA, Ochratoxin A]", "values": [
      {"measurement": "fraction unbound", "setting": "[2]", "value": "< 0.004"}
    ]}
  ]
}
